Results reported in patent publication US12480948B2, “Ratiometric fluorescent probe for detecting aminopeptidase N, and preparation method and use thereof” (Jilin University, priority 2022, dated 2025).
One block for each compound: values may come before it.

Tests used:
[1] = target: T1, APN in liver (Mus musculus, UniProt P97449); assay: In vivo imaging of APN activity in nude mice with DILI; parameters: species or system nude mouse; settings: 300 mg/kg APAP intraperitoneal, 12 h after NB-APN tail vein injection
T1 construct: from tissue; host or cells: liver of nude mice, in vivo
T1 sequence (P97449 1-966): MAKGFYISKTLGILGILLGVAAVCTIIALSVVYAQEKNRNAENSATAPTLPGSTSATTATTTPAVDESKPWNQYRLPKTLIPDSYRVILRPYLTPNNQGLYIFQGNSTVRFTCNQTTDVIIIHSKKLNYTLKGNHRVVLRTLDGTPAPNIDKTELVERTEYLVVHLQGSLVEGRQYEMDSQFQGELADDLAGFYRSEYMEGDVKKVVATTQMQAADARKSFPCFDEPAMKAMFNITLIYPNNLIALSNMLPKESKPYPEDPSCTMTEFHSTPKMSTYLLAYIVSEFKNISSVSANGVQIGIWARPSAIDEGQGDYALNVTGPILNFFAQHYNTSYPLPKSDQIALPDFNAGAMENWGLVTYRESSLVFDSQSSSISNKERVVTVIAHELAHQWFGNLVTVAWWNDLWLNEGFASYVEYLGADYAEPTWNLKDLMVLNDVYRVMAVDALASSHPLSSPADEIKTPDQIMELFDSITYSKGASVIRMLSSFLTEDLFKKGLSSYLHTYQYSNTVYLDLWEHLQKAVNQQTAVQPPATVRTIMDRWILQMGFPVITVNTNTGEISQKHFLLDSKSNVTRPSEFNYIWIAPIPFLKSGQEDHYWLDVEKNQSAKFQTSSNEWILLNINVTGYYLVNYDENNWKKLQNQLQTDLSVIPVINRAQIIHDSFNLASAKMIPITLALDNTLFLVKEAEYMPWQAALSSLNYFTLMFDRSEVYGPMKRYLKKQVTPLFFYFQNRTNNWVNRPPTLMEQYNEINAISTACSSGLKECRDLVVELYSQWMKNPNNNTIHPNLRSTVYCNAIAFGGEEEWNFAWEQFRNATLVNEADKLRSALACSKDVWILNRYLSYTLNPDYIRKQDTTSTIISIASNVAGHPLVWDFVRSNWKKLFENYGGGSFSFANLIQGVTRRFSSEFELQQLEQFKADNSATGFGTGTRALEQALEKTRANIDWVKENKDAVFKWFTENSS
Description: The NB-APN was used to image the activity of APN in nude mice with DILI. Nude mice were intraperitoneally pre-injected with pH 7.4 PBS (control), and then injected with NB-APN through the tail vein. The background fluorescence signal of the nude mice was extremely low 6 h and 12 h after the NB-APN injection. […] In addition, the nude mouse with DILI was sacrificed, and the main organs (heart, liver, spleen, lung, and kidney) and the tumor were collected for imaging after 3 h of NB-APN pretreatment.

[2] = system: APN in HepG2 cells; assay: APAP-induced hepatotoxicity and hepatoprotective drugs in HepG2 cells, imaged with NB-APN; assay type: cell-based, human; settings: for effect on the red fluorescence of HepG2 cells: drug 300 μM + APAP 1,000 μM + NB-APN 5 μM
Text: It has been reported that the excessive use of antipyretic analgesic acetaminophen (APAP) can cause drug-induced liver injury, during which process an APN concentration increases. The present disclosure also evaluates the performance of NB-APN in monitoring APN changes during APAP-induced acute hepatotoxicity and a drug treatment thereof. The NB-APN was used to evaluate the production of APN in APAP-stimulated cells. […] Furthermore, the NB-APN was used to study a relationship between the hepatotoxicity therapy and the APN level in living cells. Four drugs (NAC, GSH, TIO, and Glu) were investigated as anti-DILI hepatoprotective agents. […] This may be because the intake of GSH helps to improve the detoxification ability of the liver and reduce the damage of APAP to the liver. In addition, the western blot result was also consistent with the result of fluorescent imaging.

[3] = target: APN (Homo sapiens, UniProt P15144); assay: Inhibitor experiments with bestatin in the NB-APN + APN system; assay type: biochemical; settings: bestatin 1 μM and 10 μM, APN 25 ng/mL, NB-APN 10 μM, 37° C., pH 7.4, 20 min
Sequence of APN (P15144 whole entry, species assumed): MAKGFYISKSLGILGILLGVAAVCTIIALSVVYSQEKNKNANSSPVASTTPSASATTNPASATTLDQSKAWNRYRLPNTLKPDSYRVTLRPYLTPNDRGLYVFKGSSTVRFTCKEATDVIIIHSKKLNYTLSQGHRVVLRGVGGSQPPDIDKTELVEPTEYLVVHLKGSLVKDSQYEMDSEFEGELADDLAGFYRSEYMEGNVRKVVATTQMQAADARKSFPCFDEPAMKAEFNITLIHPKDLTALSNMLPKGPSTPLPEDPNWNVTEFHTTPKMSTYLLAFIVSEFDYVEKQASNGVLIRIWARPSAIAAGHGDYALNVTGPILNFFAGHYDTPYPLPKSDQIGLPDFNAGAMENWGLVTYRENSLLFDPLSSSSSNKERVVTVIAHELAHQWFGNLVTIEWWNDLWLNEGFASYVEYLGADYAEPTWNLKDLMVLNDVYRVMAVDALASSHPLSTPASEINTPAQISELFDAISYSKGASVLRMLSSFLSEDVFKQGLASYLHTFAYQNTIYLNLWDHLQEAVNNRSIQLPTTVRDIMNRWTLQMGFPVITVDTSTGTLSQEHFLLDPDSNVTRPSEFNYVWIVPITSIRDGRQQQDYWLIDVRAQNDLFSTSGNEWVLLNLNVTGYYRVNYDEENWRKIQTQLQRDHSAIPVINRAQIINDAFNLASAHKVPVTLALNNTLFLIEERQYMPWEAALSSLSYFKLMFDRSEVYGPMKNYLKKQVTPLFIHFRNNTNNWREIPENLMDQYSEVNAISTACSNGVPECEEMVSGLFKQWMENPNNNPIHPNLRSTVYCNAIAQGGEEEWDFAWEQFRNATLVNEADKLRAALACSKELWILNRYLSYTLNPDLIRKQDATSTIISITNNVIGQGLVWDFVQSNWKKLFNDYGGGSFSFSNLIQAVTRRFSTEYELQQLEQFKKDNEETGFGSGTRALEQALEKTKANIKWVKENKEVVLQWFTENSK
Description: Inhibitor experiments: a: NB-APN (10 μM); b: system (a)+APN (25 ng/mL); c: system (b)+bestatin (1 μM); and d: system (b)+bestatin (10 μM).
The influence of different concentrations of bestatin on the fluorescence ratio I675/I610 of 10 μM NB-APN (green) or 10 μM NB (red) was investigated, with λex=560 nm, 37° C., pH 7.4, 20 min.

[4] = target: T2, APN in liver cancer cells HepG2 (Homo sapiens, UniProt P15144); assay: Confocal ratiometric cell imaging of APN, HepG2; assay type: cell-based; settings: HepG2, bestatin 100 μM pre-treatment 1 h, NB-APN 5 μM 30 min
T2 construct: after acting on HepG2 cells, indicating the existence of intrinsic APN; endogenous in cells; host or cells: HepG2
T2 sequence (P15144 whole entry): as the sequence (P15144 whole entry, species assumed) above
Description: (§1) The probe NB-APN was used for the imaging analysis of APN in liver cancer cells HepG2 and normal hepatocytes LO2. A confocal fluorescence microscope was adopted, and an excitation light source with a wavelength of 559 nm was adopted. The light emitted from a yellow channel (580 nm to 620 nm) and a red channel (660 nm to 700 nm) was collected. The HepG2 cells and LO2 cells were each pre-treated with bestatin (100 μM) for 1 h and then incubated with NB-APN (5 μM) for 30 min.

[5] = target: T3, APN in normal hepatocytes LO2 (Homo sapiens, UniProt P15144); assay: Confocal ratiometric cell imaging of APN, LO2; assay type: cell-based; settings: LO2, bestatin 100 μM pre-treatment 1 h, NB-APN 5 μM 30 min
T3 construct: endogenous in cells; host or cells: LO2
T3 sequence (P15144 whole entry): as the sequence (P15144 whole entry, species assumed) above
Description: as §1

[6] = target: T4, APN in transplanted tumor (Homo sapiens, UniProt P15144); assay: In vivo fluorescent imaging of HepG2 tumor-transplanted nude mice; parameters: species or system nude mouse; settings: 50 μL bestatin (100 μM) pre-injected 1 h before NB-APN
T4 construct: from tissue; host or cells: HepG2 xenograft tumour in nude mouse
T4 sequence (P15144 whole entry): as the sequence (P15144 whole entry, species assumed) above
Description: Transplanted tumors from two nude mice were respectively pre-injected with 50 μL of PBS (control) and bestatin (100 μM), and 1 h later, 50 μL of NB-APN (50 μM) was intratumorally injected. Imaging was conducted at different time points (0 h, 0.25 h, 0.5 h, 1.0 h, 2.0 h, and 4.0 h) after the NB-APN injection.
The intratumoral injection was adopted to study tumor imaging in a nude mouse liver cancer model under the red luminescence channel, and results are shown in FIG. 12. The fluorescence background of the nude mouse before the probe injection was very low. […] It can be considered accordingly that the fluorescence signal in a tumor is caused by the enzymatic activity of APN and thus the probe NB-APN can detect APN at a living organism level.

Structure (SMILES): CC(=O)Nc1ccc(O)cc1 [APAP, acetaminophen]
liver fluorescence (APN expression) in nude mice [1]: strong fluorescence appeared in the liver
change of R value (APN level) with APAP concentration ([2]; HepG2, APAP 500 μM and 1,000 μM, NB-APN 5 μM): gradual increase in the R value

Structure (SMILES): N[C@@H](CCC(=O)N[C@@H](CS)C(=O)NCC(=O)O)C(=O)O [GSH, glutathione]
anti-hepatotoxic effect with APN as hepatotoxicity index, compared ([2]; drug 300 μM + APAP 1,000 μM): better than that of NAC and Glu, but worse than that of TIO
effect on the red fluorescence of HepG2 cells [2]: obvious inhibitory effect

Structure (SMILES): CC(=O)N[C@@H](CS)C(=O)O [NAC]
effect on the red fluorescence of HepG2 cells [2]: obvious inhibitory effect

Structure (SMILES): CC(S)C(=O)NCC(=O)O (stereo not shown) [TIO]
effect on the red fluorescence of HepG2 cells [2]: obvious inhibitory effect

effect on the fluorescence ratio signal I675/I610 of the NB-APN + APN system [3]: significant inhibitory effect
effect on intracellular fluorescence ratio R [4]: significantly reduced
effect on intracellular fluorescence ratio R [5]: significantly reduced
fluorescence signal at the tumor site compared with the group without inhibitor [6]: significantly weaker
Structure (SMILES): CC(C)C[C@H](NC(=O)[C@@H](O)[C@H](N)Cc1ccccc1)C(=O)O [bestatin]
